Assay results reported in ChEMBL document CHEMBL1129162, “Analogs of the orally active growth hormone secretagogue L-162,752” (Bioorg Med Chem Lett, 1996).

Key:
Rattus norvegicus [1] = species on record: Rattus norvegicus; experiment: In vitro for growth hormone release by using rat pituitary cell assay.; format: functional; settings: Pituitary gland cell
Rattus norvegicus [2] = species on record: Rattus norvegicus; experiment: Compound was tested in vitro for growth hormone release by using rat pituitary cell assay.; format: functional, Pituitary gland cell
[3] = pKa was determined; format: physicochemical

SMILES | EC50 (Rattus norvegicus [1]) [nM] | Stimulation (Rattus norvegicus [2]) [%] | pKa [3]
C[C@](N)(CO)C(=O)N[C@H](Cc1c[nH]c2ccccc12)C(=O)N1CCC2(CCc3ccccc32)CC1 | 600 | – | –
C[C@H](O)CNC(C)(C)C(=O)N[C@H](Cc1c[nH]c2ccccc12)C(=O)N1CCC2(CCc3ccccc32)CC1 | 700 | – | –
NCC(=O)N[C@H](Cc1c[nH]c2ccccc12)C(=O)N1CCC2(CCc3ccccc32)CC1 | 2000 | – | –
C[C@H](O)CNC(C)(C)CC(=O)N[C@H](Cc1c[nH]c2ccccc12)C(=O)N1CCC2(CCc3ccccc32)CC1 | 2.6 | – | –
NC1(C(=O)N[C@H](Cc2c[nH]c3ccccc23)C(=O)N2CCC3(CCc4ccccc43)CC2)CCCCC1 | – | 92 | –
O=C(N[C@H](Cc1c[nH]c2ccccc12)C(=O)N1CCC2(CCc3ccccc32)CC1)C1CCCCN1 (stereo partly specified) | 1900 | – | –
CC(C)(N)C(=O)N[C@@H](Cc1c[nH]c2ccccc12)C(=O)N1CCC2(CCc3ccccc32)CC1 | 10000 | – | –
O=C(NC(Cc1c[nH]c2ccccc12)C(=O)N1CCC2(CCc3ccccc32)CC1)NC1CN2CCC1CC2 (stereo unspecified) [SPIROPIPERIDINE] | 50 | – | –
CC(C)(N)CC(=O)N[C@@H]1CCc2ccccc2N(Cc2ccc(-c3ccccc3-c3nn[nH]n3)cc2)C1=O | 60 | – | –
CC(C)(N)C(=O)N[C@H](Cc1c[nH]c2ccccc12)C(=O)N1CCC2(CCc3ccccc32)CC1 [L-162752] | 14 | – | 7.9
NC1(C(=O)N[C@H](Cc2c[nH]c3ccccc23)C(=O)N2CCC3(CCc4ccccc43)CC2)CC1 | 2100 | – | 5.9
CC(C)(N)CC(=O)N[C@H](Cc1c[nH]c2ccccc12)C(=O)N1CCC2(CCc3ccccc32)CC1 | 76 | – | –
C[C@@](N)(CO)C(=O)N[C@H](Cc1c[nH]c2ccccc12)C(=O)N1CCC2(CCc3ccccc32)CC1 | 48 | – | –
O=C(N[C@H](Cc1c[nH]c2ccccc12)C(=O)N1CCC2(CCc3ccccc32)CC1)C1CCCNC1 (stereo partly specified) | 90 | – | –
CC(C)(CC(=O)N[C@H](Cc1c[nH]c2ccccc12)C(=O)N1CCC2(CCc3ccccc32)CC1)NC[C@H](O)CO | 16 | – | –
NC1(C(=O)N[C@H](Cc2c[nH]c3ccccc23)C(=O)N2CCC3(CCc4ccccc43)CC2)CCCC1 | 2600 | – | –
C[C@@H](N)C(=O)N[C@H](Cc1c[nH]c2ccccc12)C(=O)N1CCC2(CCc3ccccc32)CC1 | 1000 | – | –
C[C@H](N)C(=O)N[C@H](Cc1c[nH]c2ccccc12)C(=O)N1CCC2(CCc3ccccc32)CC1 | 840 | – | –
O=C(N[C@H](Cc1c[nH]c2ccccc12)C(=O)N1CCC2(CCc3ccccc32)CC1)C1CCNCC1 | 100 | – | –
